Holding throughout (type): cell-based, human
One test deals with HPAC. As to the kind of experiment: ATP luminescence proliferation assay, HPAC. The method in brief:
(§1)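 Cells were seeded at 1.0×10^3 cells/well for 3 h, then given 1:3 serial dilutions of free compound or conjugate and incubated 48, 72 or 96 h. Cellular ATP was read by luminescent viability kit, and EC50 was the concentration reducing proliferation by 50%.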

The subject of test [1] is HCT-15. As to the kind of experiment: 3H thymidine proliferation assay, HCT-15. The method in brief:
(§2)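 Tumour cells were plated at 1.0×10^4 per well and, after 3 h, treated with threefold serial dilutions of compound or conjugate. Total incubation was 72 h, with a 1.0 μCi ^3H-thymidine pulse over the last 24 h. Counts gave the 50% inhibition concentration (EC50).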

For another test, the system named is Raji. As to the kind of experiment: 3H thymidine proliferation assay, Raji. The method in brief: as §2
In the next test the test system is PC3. Kind of test: 3H thymidine proliferation assay, PC3. In a few lines:
as §2

In test [2] the test system is A2058. As to the kind of experiment: ATP luminescence proliferation assay, A2058. The method in brief: as §1
In a further test the test system is A549. Kind of test: 3H thymidine proliferation assay, A549. In a few lines: as §2
Test [3] relates to BT474. Kind of test: 3H thymidine proliferation assay, BT474. In a few lines: as §2
The subject of a further test is OVCAR8. As to the kind of experiment: 3H thymidine proliferation assay, OVCAR8. In a few lines:
as §2

The test system of the next test is NCI-H460. Kind of test: 3H thymidine proliferation assay, NCI-H460. In a few lines:
as §2

Another test deals with DMS53. Kind of test: 3H thymidine proliferation assay, DMS53. The method in brief: as §2
Another test relates to Nomo-1. Kind of test: 3H thymidine proliferation assay, Nomo-1. In a few lines:
as §2

Another test relates to HL-60. Kind of test: 3H thymidine proliferation assay, HL-60. In a few lines: as §2
For a further test, the system named is Hep3B. Kind of test: ATP luminescence proliferation assay, Hep3B. The method in brief:
as §1

Test [4] concerns A2058. Kind of test: 3H thymidine proliferation assay, A2058. The settings on record: 3H thymidine method, 72 h incubation. The method in brief: as §2
For test [5], the system named is HCT-15. Kind of test: ATP luminescence proliferation assay, HCT-15. The method in brief: as §1
In the next test the test system is H740. As to the kind of experiment: 3H thymidine proliferation assay, H740. In a few lines: as §2
In a further test the test system is UO-31. Kind of test: 3H thymidine proliferation assay, UO-31. The method in brief: as §2
For a further test, the system named is 786-O. As to the kind of experiment: 3H thymidine proliferation assay, 786-O. In a few lines:
as §2

Test [6] concerns BT474. Kind of test: ATP luminescence proliferation assay, BT474. The method in brief: as §1
For the next test, the system named is SW-620. As to the kind of experiment: ATP luminescence proliferation assay, SW-620. In a few lines:
as §1

Another test has as its system CEM-Cl. Kind of test: ATP luminescence proliferation assay, CEM-C1. The method in brief: as §1
Setting [7] is: ATP luminescence, 72 h incubation, read-out: EC50 HPAC (72 h).
The mark [8] stands for this setting: 3H thymidine method, 72 h incubation, read-out: EC50, HCT-15.
Where [9] appears, read: 3H thymidine method, 72 h incubation, read-out: EC50, Raji.
[10] abbreviates: 3H thymidine method, 72 h incubation, read-out: EC50, PC3.
Where [11] appears, read: 3H thymidine method, 72 h incubation, read-out: EC50, A549.
[12] abbreviates: 3H thymidine method, 72 h incubation, read-out: EC50, BT474.
Setting [13] is: 3H thymidine method, 72 h incubation, read-out: EC50, OVCAR8.
Setting [14] is: 3H thymidine method, 72 h incubation, read-out: EC50, NCI-H460.
Setting [15] is: 3H thymidine method, 72 h incubation, read-out: EC50, DMS53.
Where [16] appears, read: 3H thymidine method, 72 h incubation, read-out: EC50, Nomo-1.
The mark [17] stands for this setting: 3H thymidine method, 72 h incubation, read-out: EC50, HL-60.
Setting [18] is: ATP luminescence, 48 h incubation, read-out: EC50 Hep3B (48 h).
The mark [19] stands for this setting: 3H thymidine method, 72 h incubation, read-out: EC50, H740.
[20] abbreviates: 3H thymidine method, 72 h incubation, read-out: EC50, UO-31.
The mark [21] stands for this setting: 3H thymidine method, 72 h incubation, read-out: EC50, 786-O.
The mark [22] stands for this setting: ATP luminescence, BT474, 48 h incubation, read-out: EC50 BT474 (48 h).
The mark [23] stands for this setting: ATP luminescence, SW-620, 96 h incubation, read-out: EC50 SW-620 (96 h).

Like-named read-outs stand apart in the source and are kept apart here. A value given as a limit tells only on which side of the number the result lay.

For orientation: EC50 means the concentration needed to bring the measured effect to its halfway point. On to `CC[C@H](C)[C@H](NC(=O)[C@H]1CCCCN1C)C(=O)N(COC)[C@H](C[C@@H](OC)c1nc(C(=O)N[C@@H](Cc2ccccc2)C(=O)OC)cs1)C(C)C` [Compound 29c], for which the EC50 was determined as 4.6 nM in the test on HPAC (setting [7]); 2.4 nM in the test on HCT-15 [1] (setting [8]); 8.5 nM with Raji (setting [9]); 11 nM in the test with PC3 (setting [10]); 32 nM with A2058 [2] (ATP luminescence, A2058, 48 h incubation, read-out: EC50 A2058 (48 h)); 6.5 nM in the test on A549 (setting [11]). Further, the EC50 is 12 nM in the test with BT474 [3] (setting [12]); 1.4 nM with OVCAR8 (setting [13]); 15 nM in the test on NCI-H460 (setting [14]); 76 nM with DMS53 (setting [15]); 0.43 nM in the test with Nomo-1 (setting [16]); 1.8 nM in the test on HL-60 (setting [17]). Also, the EC50 was 75 nM with Hep3B (setting [18]); 5.6 nM with A2058 [4]; 200 nM with HCT-15 [5] (ATP luminescence, HCT-15, 48 h incubation, read-out: EC50 HCT-15 (48 h)); 5.3 nM in the test on H740 (setting [19]); 1 nM with UO-31 (setting [20]); 3.9 nM with 786-O (setting [21]). Further, the EC50 was 492 nM in the test on BT474 [6] (setting [22]); 8.4 nM in the test with SW-620 (setting [23]); 20 nM in the test on CEM-Cl (ATP luminescence, CEM-C1, 48 h incubation, read-out: EC50 CEM-C1 (48 h)).
As to `CC[C@H](C)[C@H](NC(=O)[C@H]1CCCCN1C)C(=O)N(C)[C@H](C[C@@H](OC(C)=O)c1nc(C(=O)N[C@@H](Cc2ccc(N)cc2)CC(C)C(=O)O)cs1)C(C)C` (stereo partly drawn) [Compound 36], the EC50 came to 2.9 nM with HPAC (Homo sapiens, 72 h, read-out: EC50 HPAC (72 h), ATP luminescence, HPAC, 72 h incubation); 64 nM in the test on HCT-15 [1] (Homo sapiens, HCT-15, read-out: EC50, HCT-15, 3H thymidine method, 72 h incubation); 15 nM in the test on Raji (Homo sapiens, Raji, read-out: EC50, Raji, 3H thymidine method, 72 h incubation); 66 nM in the test on PC3 (Homo sapiens, PC-3, read-out: EC50, PC3, 3H thymidine method, 72 h incubation); 43 nM with A2058 [2] (Homo sapiens, A2058, 72 h, read-out: EC50 A2058 (72 h), ATP luminescence, A2058, 72 h incubation); 44 nM in the test on A549 (Homo sapiens, A549, read-out: EC50, A549, 3H thymidine method, 72 h incubation). Also, the EC50 is more than 100 nM with BT474 [3] (Homo sapiens, BT-474, read-out: EC50, BT474, 3H thymidine method, 72 h incubation); more than 100 nM in the test on OVCAR8 (Homo sapiens, OVCAR-8, read-out: EC50, OVCAR8, 3H thymidine method, 72 h incubation); 52 nM in the test with NCI-H460 (Homo sapiens, NCI-H460, read-out: EC50, NCI-H460, 3H thymidine method, 72 h incubation); more than 100 nM in the test with DMS53 (Homo sapiens, DMS-53, read-out: EC50, DMS53, 3H thymidine method, 72 h incubation); 124 nM in the test with Nomo-1 (Homo sapiens, NOMO-1, read-out: EC50, Nomo-1, 3H thymidine method, 72 h incubation); 107 nM in the test with HL-60 (Homo sapiens, HL-60, read-out: EC50, HL-60, 3H thymidine method, 72 h incubation). For the same compound, the EC50 is 86 nM in the test on Hep3B (Homo sapiens, 48 h, read-out: EC50 Hep3B (48 h), ATP luminescence, Hep3B, 48 h incubation); 60 nM in the test on A2058 [4] (Homo sapiens, A2058); 96 nM in the test with HCT-15 [5] (Homo sapiens, HCT-15, 72 h, read-out: EC50 HCT-15 (72 h), ATP luminescence, HCT-15, 72 h incubation); more than 100 nM with H740 (Homo sapiens, read-out: EC50, H740, 3H thymidine method, 72 h incubation); more than 100 nM in the test with UO-31 (Homo sapiens, UO-31, read-out: EC50, UO-31, 3H thymidine method, 72 h incubation); more than 100 nM with 786-O (Homo sapiens, 786-0, read-out: EC50, 786-O, 3H thymidine method, 72 h incubation). The EC50 in the test with BT474 [6] (Homo sapiens, BT-474, 48 h, read-out: EC50 BT474 (48 h), ATP luminescence, BT474, 48 h incubation) was approximately 120 nM; with SW-620 (Homo sapiens, SW-620, 96 h, read-out: EC50 SW-620 (96 h), ATP luminescence, SW-620, 96 h incubation), 45 nM; in the test with CEM-Cl (Homo sapiens, CEM/C1, 72 h, read-out: EC50 CEM-C1 (72 h), ATP luminescence, CEM-C1, 72 h incubation), 40 nM.
Consider `CC[C@H](C)[C@H](NC(=O)[C@H]1CCCCN1C)C(=O)N(C)[C@H](C[C@@H](OC)c1nc(C(=O)N[C@@H](Cc2ccc(N)cc2)CC(C)C(=O)O)cs1)C(C)C` (stereo partly drawn) [Compound 51], for which the EC50 turned out to be 4.5 nM in the test with HPAC (setting [7]); 101 nM with HCT-15 [1] (setting [8]); 1.5 nM in the test with Raji (setting [9]); 5.6 nM with PC3 (setting [10]); 5.5 nM in the test on A2058 [2] (ATP luminescence, A2058, 72 h incubation, read-out: EC50 A2058 (72 h)); 7.8 nM in the test on A549 (setting [11]). For the same compound, the EC50 came out at 30 nM in the test with BT474 [3] (setting [12]); 20 nM in the test with OVCAR8 (setting [13]); 7.2 nM in the test on NCI-H460 (setting [14]); 24 nM with DMS53 (setting [15]); 3.5 nM with Nomo-1 (setting [16]); 4.2 nM with HL-60 (setting [17]). The EC50 with Hep3B (setting [18]) is 3.8 nM; with A2058 [4], 0.4 nM; in the test on HCT-15 [5] (ATP luminescence, HCT-15, 72 h incubation, read-out: EC50 HCT-15 (72 h)) it was 93 nM; in the test with H740 (setting [19]) it was 37 nM; in the test with UO-31 (setting [20]), 35 nM; in the test with 786-O (setting [21]), 10 nM. Moreover, the EC50 came to 11 nM in the test on BT474 [6] (setting [22]); 6.4 nM with SW-620 (setting [23]); 4.8 nM with CEM-Cl (ATP luminescence, CEM-C1, 72 h incubation, read-out: EC50 CEM-C1 (72 h)).

These data come from patent US20130204033A1, “ANTIPROLIFERATIVE COMPOUNDS, CONJUGATES THEREOF, METHODS THEREFOR, AND USES THEREOF” (Medarex, Inc., priority 2009, published 2013).
